The source made the active and inactive calls. No cut-off for these calls is given here.
Key:
Lepidium sativum [1] = assay: Herbicidal activity against Lepidium sativum assessed as inhibition of radicle growth of seeds at 1 to 2 ppm after 69 to 75 hrs in dark; type: functional; parameters: scale not given: the % may be the effect or the level left
[2] = Toxicity in ip dosed mouse; type: organism-based; details: in vivo
Lepidium sativum [3] = assay: Herbicidal activity against Lepidium sativum assessed as occurrence of browning and tissue necrosis; type: functional, organism-based
Lepidium sativum [4] = assay: Herbicidal activity against Lepidium sativum assessed as inhibition of radicle growth of seed at 3 to 4 ppm after 69 to 75 hrs in dark; type: functional, organism-based
Rattus norvegicus = assay: Acute toxicity in rat at 2500 to 5000 mg/kg, po; type: organism-based; parameters: dose 2500-5000 mg/kg, route oral; details: in vivo

| SMILES | Activity (Lepidium sativum [1]) [%] | LD50 [2] [mg/kg] | Activity (Lepidium sativum [3]) | Activity (Lepidium sativum [4]) | Activity (Rattus norvegicus) |
| --- | --- | --- | --- | --- | --- |
| CO[C@@H]1C[C@@H](C[C@H]2CC[C@H](C)[C@H]([C@@H](C)C(=O)O)O2)O[C@]2(O[C@](C)([C@H]3CC[C@@](C)([C@@H]4O[C@@H]([C@H]5O[C@@](O)(CO)[C@H](C)C[C@@H]5C)C[C@@H]4C)O3)C[C@H]2C)[C@@H]1C [NIGERICIN] | 50 | 10 | inactive | Active | – |
| COC1=C2C[C@@H](C)C[C@H](OC)[C@H](O)[C@@H](C)/C=C(\C)[C@H](OC(N)=O)[C@@H](OC)/C=C\C=C(/C)C(=O)NC(=CC1=O)C2=O [GELDANAMYCIN] | 50 | 1 | – | Active | Toxic |

Source: ChEMBL document CHEMBL1149017, “Herbicidal effects of geldanamycin and nigericin, antibiotics from Streptomyces hygroscopicus” (J Nat Prod, 1986)
